From US6492365B1, “Microsomal triglyceride transfer protein” (Bristol-Myers Squibb Company, priority 1992, dated 2002) come the findings set out here.

The test system of the test is apoAI secretion from HepG2 cells. The experiment in a line: ApoAI secretion from HepG2 cells (ELISA of culture media). The format is cell-based, human. Particulars: 16-hour incubation, up to the maximum dose of 20 μM. How it is done: HepG2 cells were treated with compound A at the indicated doses for 16 hours. The concentration in the cell culture media of apoB, apoAI and HSA after the incubation period was measured with the appropriate ELISA assay and normalized to total cell protein. The data shown are expressed as a percentage of the control (DMSO only).
The human hepatoblastoma cell line, HepG2, was obtained from the American Type Culture Collection (Rockville, Md.; ATCC accession no. 8065). Cultures were maintained at 37° C. in a 5% carbon dioxide atmosphere in T-75 culture flasks with 12 mL of RPMI 1640 medium containing 10% fetal bovine serum (all cell culture media and buffers were obtained from GIBCO Life Technologies, Gaithersburg, Md.). Cells were subcultured 1:4 once a week and fed fresh medium 3 times a week.
Experiments to measure the effects of compounds A and B on protein secretion were carried out in 48-well plates. HepG2 cells were subcultured 1:2 and allowed to come to confluency at least 24 hours before drug treatment. Before commencement of drug treatment, culture medium was removed, the cells washed once with PBS and 1 mL of fresh medium was added quantitatively. […] The cells were homogenized by trituration with a 1 mL micropipettor, and protein was measured using the Coomassie reagent (Pierce Chemical Co, Rockford, Ill.) as described by the manufacturer. […]

Where a name gives a salt, the structure may show the parent alone.

For `O=C1c2ccccc2CN1C1CCN(CCC(c2ccccc2)c2ccccc2)CC1` [compound A, 2-[1-(3,3-diphenylpropyl)-4-piperdinyl]-2,3-dihydro-3-oxo-1H-isoindole hydrochloride], the “secretion of apoAI” value is “unaffected”.
